Measured values reported in patent US20220162200A1, “PKM2 MODULATORS AND METHODS FOR THEIR USE” (Sumitomo Dainippon Pharma Oncology, Inc., priority 2019, published 2022).

Experiments:
[1] = molecular target: PKM2 (Homo sapiens, UniProt P14618); experiment: PKM2 activation assay (ATP formation measured by Kinase Glo); format: biochemical; conditions: 2 nM PKM2, 30 min pre-incubation, 75 μM ADP, 15 μM PEP, ATP formation after 30 min
Method: Compounds were pre-incubated with 2 nM PKM2 in reaction buffer (50 mM Tris-HCl, pH 8.0, 200 mM KCl, 30 mM MgCl2, 2 mM Dithiothreitol (DTT), 5% Dimethyl sulfoxide (DMSO)) for 30 min at ambient temperature. Adenosine diphosphate (ADP) and Phosphoenolpyruvic acid (PEP) were then added to final concentrations of 75 μM and 15 μM, respectively. After 30 min, Adenosine triphosphate (ATP) formation was measured by Kinase Glo (Promega, Madison, Wis.), and AC50 values were determined using Prism (GraphPad Software, Inc., La Jolla, Calif.).

[2] = test system: A549 cells; experiment: A549 cell viability by ATPlite assay; format: cell-based; conditions: Homo sapiens, A549 cells in BME media lacking nonessential amino acids + 5% dialyzed serum, 72 hours
Method: A549 cells were seeded at 5000 cells per well (in 96-well plate) in Basal Medium Eagle (BME) media lacking nonessential amino acids+5% dialyzed serum. After 18 hours, a negative control (i.e., DMSO only) or a representative compound in 0.1% final concentration DMSO was added. After 72 hours, cell viability was determined by ATPlite assay and EC50 values were determined using Prism GraphPad Software (La Jolla, Calif.).

Chain of PKM2 (P14618 whole entry): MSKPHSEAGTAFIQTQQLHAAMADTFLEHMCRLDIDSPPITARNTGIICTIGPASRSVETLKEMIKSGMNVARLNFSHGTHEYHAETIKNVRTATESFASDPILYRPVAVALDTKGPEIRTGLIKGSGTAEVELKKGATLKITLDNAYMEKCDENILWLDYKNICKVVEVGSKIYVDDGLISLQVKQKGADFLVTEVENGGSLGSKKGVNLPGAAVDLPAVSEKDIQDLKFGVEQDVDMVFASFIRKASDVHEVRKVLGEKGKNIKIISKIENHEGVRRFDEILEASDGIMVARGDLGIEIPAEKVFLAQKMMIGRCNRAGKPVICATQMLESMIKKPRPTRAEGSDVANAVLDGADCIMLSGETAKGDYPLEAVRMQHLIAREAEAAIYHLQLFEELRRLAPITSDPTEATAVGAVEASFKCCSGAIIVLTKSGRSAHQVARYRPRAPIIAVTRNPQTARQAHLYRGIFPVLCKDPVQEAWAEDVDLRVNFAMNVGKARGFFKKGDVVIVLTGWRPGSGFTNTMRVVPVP

SMILES	AC50 [1] [nM]	EC50 [2] [nM]
O=C(c1cc(C(F)(F)F)n[nH]1)N(CCC1CCS(=O)(=O)CC1)Cc1c(F)ccc2c(Cl)c[nH]c12 [Compound Ie, N-(2-(1,1-dioxidotetrahydro-2H-thiopyran-4-yl)ethyl)-N-((3-chloro-6-fluoro-1H-indol-7-yl)methyl)-3-(trifluoromethyl)-1H-pyrazole-5-carboxamide]	< 15	
Cc1ccc(F)c(CN(CCC2CCS(=O)(=O)CC2)C(=O)c2cc(C(F)(F)F)n[nH]2)c1 [Compound Ic, N-(2-(1,1-dioxidotetrahydro-2H-thiopyran-4-yl)ethyl)-N-(2-fluoro-5-methylbenzyl)-3-(trifluoromethyl)-1H-pyrazole-5-carboxamide]	15 to 50	50 to 100
O=C(c1cc(C(F)(F)F)n[nH]1)N(CCC1CCS(=O)(=O)CC1)Cc1c(F)ccc2cc[nH]c12 [Compound Id, N-(2-(1,1-dioxidotetrahydro-2H-thiopyran-4-yl)ethyl)-N-((6-fluoro-1H-indol-7-yl)methyl)-3-(trifluoromethyl)-1H-pyrazole-5-carboxamide]	< 15	
Nc1cccc(Cl)c1CN(CCC1CCS(=O)(=O)CC1)C(=O)c1cc(C(F)(F)F)n[nH]1 [Compound Ia, N-(2-amino-6-chlorobenzyl)-N-(2-(1,1-dioxidotetrahydro-2H-thiopyran-4-yl)ethyl)-3-(trifluoromethyl)-1H-pyrazole-5-carboxamide]	< 15	
O=C(c1cc(C(F)(F)F)n[nH]1)N(CCC1CCS(=O)(=O)CC1)Cc1c(F)cccc1Br [Compound Ib, N-(2-bromo-6-fluorobenzyl)-N-(2-(1,1-dioxidotetrahydro-2H-thiopyran-4-yl)ethyl)-3-(trifluoromethyl)-1H-pyrazole-5-carboxamide]	15 to 50	> 100

Second part, the compound after the results:

AC50 [1] [nM]	EC50 [2] [nM]	SMILES
> 50		O=C(c1cc(C(F)(F)F)n[nH]1)N(CCC1CCS(=O)(=O)CC1)Cc1c(F)cccc1Cl [Compound Ij, N-(2-chloro-6-fluorobenzyl)-N-(2-(1,1-dioxidotetrahydro-2H-thiopyran-4-yl)ethyl)-3-(trifluoromethyl)-1H-pyrazole-5-carboxamide]
15 to 50	> 100	O=C(c1cc(C(F)(F)F)n[nH]1)N(CCC1CCS(=O)(=O)CC1)Cc1c(F)ccc2cn[nH]c12 [Compound Ig, N-(2-(1,1-dioxidotetrahydro-2H-thiopyran-4-yl)ethyl)-N-((6-fluoro-1H-indazol-7-yl)methyl)-3-(trifluoromethyl)-1H-pyrazole-5-carboxamide]
> 50		Nc1cccc(Br)c1CN(CCC1CCS(=O)(=O)CC1)C(=O)c1cc(C(F)(F)F)n[nH]1 [Compound Ih, N-(2-amino-6-bromobenzyl)-N-(2-(1,1-dioxidotetrahydro-2H-thiopyran-4-yl)ethyl)-3-(trifluoromethyl)-1H-pyrazole-5-carboxamide]
> 50	50 to 100	Nc1ccccc1CN(CCC1CCS(=O)(=O)CC1)C(=O)c1cc(C(F)(F)F)n[nH]1 [Compound Ii, N-(2-aminobenzyl)-N-(2-(1,1-dioxidotetrahydro-2H-thiopyran-4-yl)ethyl)-3-(trifluoromethyl)-1H-pyrazole-5-carboxamide]
15 to 50	> 100	NCc1ccc(F)c(CN(CCC2CCS(=O)(=O)CC2)C(=O)c2cc(C(F)(F)F)n[nH]2)c1 [Compound If, N-(2-(1,1-dioxidotetrahydro-2H-thiopyran-4-yl)ethyl)-N-(2-fluoro-5-aminomethylbenzyl)-3-(trifluoromethyl)-1H-pyrazole-5-carboxamide]
